PubChem BioAssay AID2060626 (Molecular Pharmacology Branch, DTP, NCI, 2025)
pIC50: −log10 of the molar value. Values joined by “and” are separate entries in the source; they are usually repeats but may differ in a detail not shown here. Identical values can stand only once.

System: 168753-222-R-J1-PDC complex spheroid viability
Test: Anticancer human tumor 168753-222-R-J1-PDC patient-derived bladder carcinoma cell line growth inhibition [CLK]
Details: for viability, T/C: stronger effect = lower value; active means viability on the fitted dose curve at most 10% of control; inactive means the rest
In short: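 Patient-derived tumor cells grown as complex spheroids with HUVEC endothelial cells and mesenchymal stem cells, treated with drug combinations. Concentrations descend in half-log steps from near clinical Cmax, or from 10 microM if Cmax unknown.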
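Further: viability measured after seven days of drug exposure.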
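Wherever viability, T/C is given: luminescence signal used as surrogate for viable cell amount; 100% = DMSO vehicle control wells.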

C#Cc1c(F)ccc2cc(O)cc(-c3ncc4c(N5CC6CCC(C5)N6)nc(OCC56CCCN5CC(F)C6)nc4c3F)c12 (stereo not given)
inactive: viability, T/C (compound 0.0316 µM) 107% and 94.2% | viability, T/C (compound 0.1 µM) 103% and 96.3% | viability, T/C (compound 0.316 µM) 99.5% and 107% | viability, T/C (compound 1 µM) 103% and 97.3% | viability, T/C (compound 3.16 µM) 89.2% and 66.9% | viability, T/C (compound 10 µM) 80.6% and 52.9%
< 5.00: pIC50 (curve of compound)

Nc1ccn(C2OC(CO)C(O)C2(F)F)c(=O)n1 (stereo not given)
inactive: viability, T/C (compound 0.0316 µM) 57.8% and 83.1% | viability, T/C (compound 0.1 µM) 24.7% and 60.2% | viability, T/C (compound 0.316 µM) 18% and 50.2% | viability, T/C (compound 1 µM) 23.2% and 52.5% | viability, T/C (compound 3.16 µM) 26.2% and 46.9% | viability, T/C (compound 10 µM) 21.6% and 37.8%

C#Cc1c(F)ccc2cc(O)cc(-c3ncc4c(N5CC6CCC(C5)N6)nc(OCC56CCCN5CC(F)C6)nc4c3F)c12 (stereo not given) + CNC(=O)c1ccc(Nc2nc(OC3CCCC3)c3c(-c4ccc5nc(C)oc5c4)c[nH]c3n2)c(OC)c1
> 7.50: pIC50 (curve of first compound, second compound 1 µM) | pIC50 (curve of first compound, second compound 3.16 µM) | pIC50 (curve of first compound, second compound 10 µM)
inactive: viability, T/C (second compound 0.0316 µM, first compound 0.0316 µM) 106% | viability, T/C (second compound 0.0316 µM, first compound 0.1 µM) 99.4% | viability, T/C (second compound 0.0316 µM, first compound 0.316 µM) 107% | viability, T/C (second compound 0.0316 µM, first compound 1 µM) 99.2% | viability, T/C (second compound 0.0316 µM, first compound 3.16 µM) 105% | viability, T/C (second compound 0.0316 µM, first compound 10 µM) 73.1% | viability, T/C (second compound 0.1 µM, first compound 0.0316 µM) 99.1% | viability, T/C (second compound 0.1 µM, first compound 0.1 µM) 103% | viability, T/C (second compound 0.1 µM, first compound 0.316 µM) 101% | viability, T/C (second compound 0.1 µM, first compound 1 µM) 101% | viability, T/C (second compound 0.1 µM, first compound 3.16 µM) 90.1% | viability, T/C (second compound 0.1 µM, first compound 10 µM) 73% | viability, T/C (second compound 0.316 µM, first compound 0.0316 µM) 86% | viability, T/C (second compound 0.316 µM, first compound 0.1 µM) 74.3% | viability, T/C (second compound 0.316 µM, first compound 0.316 µM) 78.5% | viability, T/C (second compound 0.316 µM, first compound 1 µM) 78.2% | viability, T/C (second compound 0.316 µM, first compound 3.16 µM) 67.9% | viability, T/C (second compound 0.316 µM, first compound 10 µM) 25.6% | viability, T/C (second compound 1 µM, first compound 0.0316 µM) 42.3% | viability, T/C (second compound 1 µM, first compound 0.1 µM) 39.9% | viability, T/C (second compound 1 µM, first compound 0.316 µM) 36.7% | viability, T/C (second compound 1 µM, first compound 1 µM) 22.7% | viability, T/C (second compound 1 µM, first compound 3.16 µM) 30.4% | viability, T/C (second compound 1 µM, first compound 10 µM) 16.9% | viability, T/C (second compound 3.16 µM, first compound 0.0316 µM) 28.7% | viability, T/C (second compound 3.16 µM, first compound 0.1 µM) 21.7% | viability, T/C (second compound 3.16 µM, first compound 0.316 µM) 20% | viability, T/C (second compound 3.16 µM, first compound 1 µM) 17.7% | viability, T/C (second compound 3.16 µM, first compound 3.16 µM) 18.4% | viability, T/C (second compound 3.16 µM, first compound 10 µM) 16.2% | viability, T/C (second compound 10 µM, first compound 0.0316 µM) 17.1% | viability, T/C (second compound 10 µM, first compound 0.1 µM) 21.5% | viability, T/C (second compound 10 µM, first compound 0.316 µM) 18.6% | viability, T/C (second compound 10 µM, first compound 1 µM) 14.8% | viability, T/C (second compound 10 µM, first compound 3.16 µM) 11.7% | viability, T/C (second compound 10 µM, first compound 10 µM) 11.3%
< 5.00: pIC50 (curve of first compound, second compound 0.0316 µM) | pIC50 (curve of first compound, second compound 0.1 µM)
5.29: pIC50 (curve of first compound, second compound 0.316 µM)
